In paper PMC9841589, “Identification of 2-Aminoacyl-1,3,4-thiadiazoles as Prostaglandin E2 and Leukotriene Biosynthesis Inhibitors” (ACS Medicinal Chemistry Letters, 2022):

What was measured:
[1] = target: T1, mPGES-1 (Homo sapiens, UniProt O14684); assay: Cell-free mPGES-1 activity assay (PGE2 biosynthesis); type: biochemical; conditions: 10 μM, percentage of control (100%), read-out: mPGES-1 residual activity at 10 μM (%)
T1 construct: endogenous in cells; host or cells: A549 cells stimulated with IL-1β; microsomal fraction
T1 sequence (O14684 1-152): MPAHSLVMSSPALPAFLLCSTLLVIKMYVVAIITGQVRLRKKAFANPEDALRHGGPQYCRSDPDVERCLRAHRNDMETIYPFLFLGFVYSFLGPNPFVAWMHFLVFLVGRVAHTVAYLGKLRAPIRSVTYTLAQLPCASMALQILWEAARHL
Description: (Table 1). […] From the structural point of view, the biological affinities of compounds 3 and 7 (Figure 2A and C) could be positively affected by the 2-bromobenzoyl substituent able to accommodate in a deep binding pocket on the mPGES-1 surface. This moiety interacts by van der Waals contacts with amino acids of the cytoplasmic part and establishes π-stacking with Phe44ChainC and His53ChainC hydrogen bonds with Ser127, and a halogen bond between the bromine atom and the side chain of Aps49ChainC. Furthermore, the 3-phenylphenol and 2-aminobiphenyl moieties of 3 and 7 (Figure 2A and C), respectively, are able to establish a peculiar π-stacking with Tyr130ChainA and a hydrogen bond with Gln134ChainA. […]
mM glutathione, and 250 mM sucrose) and the protein concentration was defined. Potassium phosphate buffer (0.1 M, pH = 7.4) plus glutathione (2.5 mM) was added to dilute microsomes, which were then seeded in a 96-well plate. […]
preincubated for 15 min on ice. MK886 (10 µM) and MD-52 (1 µM) were used as reference drugs.
The reactions started by adding 20 µM of PGH2, and 1 min later, 100 µl of a solution containing FeCl3 (40 mM), citric acid (80 mM), and 11β-PGE 2 (10 µM) were added for stopping the conversion of PGH2. After the extraction of PGE2 and 11β-PGE 2 (internal stardard) by solid-phase extraction, […]

[2] = system: zymosan-induced peritonitis; assay: Zymosan-induced peritonitis in mice; type: in vivo, mouse; conditions: 3 mg/kg i.p.
Protocol: Figure 5 Effect of compound 3 in zymosan-induced peritonitis in mice. Mice were randomly divided into different experimental groups: control group (Ctrl), model group (zymosan + vehicle compound 3), zymosan + compound 3 (i.p. injection 30 min after i.p. injection of zymosan) group, and zymosan + dexamethasone (i.p. injection 30 min after i.p. injection of zymosan) group. At (A) 4 and (B) 24 h after injection, peritoneal exudate from each mouse was recovered, and the total cell number was evaluated. Results are expressed as mean ± SD. For statistical analysis see SI.
Figure 6 Analysis of cytokine levels collected in the peritoneal exudate of mice from different experimental groups: (A, B) IL-1β, (C, D) IL-6, (E, F) PGE2, and (G, H) IL-10. Results (normalized to exudate levels) are expressed as mean ± SD. For statistical analysis see SI.
Induction of peritonitis in mice and Enzyme-Linked Immunosorbent Assay (ELISA)
To examine the anti-inflammatory action of compound 3, we next evaluated the biological activity of
compound 3 in a mouse model of zymosan-induced peritonitis, as as previously described. 13,14 26, 27
To this aim, mice were randomly divided into different experimental groups: control group (Ctrl),
model group (zymosan + vehicle compound 3), zymosan + compound 3 (0.1, 1, and 10 mg/kg), and
zymosan + dexamethasone (3 mg/kg) group. Animals received the selected compound or
dexamethasone intraperitoneally (i.p.) 30 min after i.p. injection of zymosan (500 mg/kg)26, 27. Ctrl
and model groups received an equal volume of vehicle (PBS or DMSO/saline 1:3, respectively).
Peritoneal exudates were collected at selected time points (4 and 24 h) by washing the cavity with 2
mL of PBS. Then cell number of lavage fluids was determined by TC10 automated cell counter (Bio-
Rad, Milan, Italy) using disposable slides. The remaining lavage fluids were centrifuged at 3000 rpm
for 20 min at 4 °C, and supernatants were frozen at −80 °C for further ELISA analysis according to
the manufacturer instructions (eBioscience Co., San Diego, CA, USA)10 23 of IL-1β, IL-6, PGE 2 and
IL-10 following the procedure previously described15-17 28-30. Dexamethasone and zymosan A were
purchased from Sigma-Aldrich (Milan, Italy). DMSO was purchased from Merck (Italy). Unless
otherwise stated, all the other reagents were purchased from Carlo Erba (Milan, Italy).
The data and statistical analysis in this study comply with the international recommendations on
experimental design and analysis in preclinical pharmacology18-2031-33. The results obtained were
expressed as the mean ± S.D. or as mean ± S.E.M., as reported in detail in the figure legends. IC 50
values were calculated by nonlinear regression using GraphPad Prism Version 8.0 software (San
Diego, CA) one site binding competition. Statistical evaluation of the data was performed by one-

SMILES | remaining activity at 10 µM [1] | also measured
Cc1ccoc1C(=O)Nc1nnc(-c2ccc(-c3cccc(O)c3)cc2)s1 [compound 1] | > 50% | 
C[C@@H]1C[C@H]2[C@@H]3CCC4=CC(=O)C=C[C@]4(C)[C@@]3(F)[C@@H](O)C[C@]2(C)[C@@]1(O)C(=O)CO [dexamethasone, reference compound] |  | IL-1β level in peritoneal exudate ([2]; 4 and 24 h): more prominent effect; IL-6 level in peritoneal exudate ([2]; 4 and 24 h): more prominent effect; IL-10 level in peritoneal exudate ([2]; 4 and 24 h): more prominent effect; PGE2 level in peritoneal exudate ([2]; 4 and 24 h): more prominent effect; leukocyte numbers in the peritoneal cavity ([2]; 4 h (P ≤ 0.005) and 24 h (P ≤ 0.01)): significantly reduced
Cc1cc(C(=O)Nc2nnc(-c3ccc(-c4cccc(O)c4)cc3)s2)cc(Cl)n1 [compound 2] | > 50% | 

More lines, main results first:

remaining activity at 10 µM [1] | SMILES | also measured
> 50% | Nc1ccccc1-c1ccc(-c2nnc(NC(=O)c3cc(F)ccc3F)s2)cc1 [compound 8] | 
> 25% | Cc1ccoc1C(=O)Nc1nnc(-c2ccc(-c3ccccc3N)cc2)s1 [compound 5] | 
> 50% | O=C(Nc1nnc(-c2ccc(-c3cccc(O)c3)cc2)s1)c1cc(F)ccc1F [compound 4] | 
